Consider three molecules from patent US20030166645A1, “Novel nitrofuran-containing heterocyclic compounds and uses thereof” (priority 2001, published 2003).

For assay [1], the system named is E coli (ImpA). The assay is described as follows: Microdilution antimicrobial susceptibility test (MIC). The class given is cell-based. The note with it: broth microdilution, 18-24 h, MIC = 90% inhibition of growth; read-out: MIC E coli (ImpA) MIC9. As for the experimental part: Microdilution Antimicrobial Susceptibility Test Assay
Stock solutions of tested compounds were prepared in N,N-dimethylformamide (DMF) at a concentration of 5 mg/mL. Working solutions of the tested compounds were then prepared from the stock solutions, in Mueller-Hinton broth (MHB) with a starting concentration of 64 μg/mL.
Bacterial inocula were prepared from overnight culture (i.e., one fresh colony from agar plate in 5 ml MHB; H. influenzae was grown in MHB with the addition of yeast extract, haematin, and NAD), centrifuged 2×5 min/3000 rpm (for S. pneumoniae and H. influenzae, 2×10 min/3000 rpm), and dispensed in 5 ml of fresh MHB each time, such that the bacterial suspension is diluted to obtain 100 colony forming units (cfu) in a microplate well (100 μl total volume).
Microplate wells were filled with two-fold dilutions of test compound (50 Al), starting with 64 μg/ml. Wells were then filled with 50 μl of bacterial inoculum (final volume: 100 μl/well). The plates were incubated at 37° C. for 18-24 hours (S. pneumoniae was grown in a CO2-enriched atmosphere).
(Broth dilution looks for growth in wells or tubes with falling amounts of substance.)

The test system of assay [2] is S cerevisiae. The assay is described as above. The class given is cell-based. The note with it: broth microdilution, 18-24 h, MIC = 90% inhibition of growth; read-out: MIC S cerevisiae MIC7.
Assay [3] has as its system S pneumoniae. Described as above. The class given is cell-based. Conditions: broth microdilution, 18-24 h, CO2-enriched atmosphere, MIC = 90% inhibition of growth; read-out: MIC S pneumoniae MIC6.
Assay [4] has as its system Bacteroides fragilis. The experiment in a line: Antimicrobial agar dilution test of anaerobic bacteria (MIC). The class given is cell-based. Conditions: 48 h. A general note: In agar dilution, organisms are placed on agar that contains the substance at set levels.
Assay [5] concerns E coli. The assay is described as follows: Microdilution antimicrobial susceptibility test (MIC). The class given is cell-based. The note with it: broth microdilution, 18-24 h, MIC = 90% inhibition of growth; read-out: MIC E coli MIC2.
The subject of assay [6] is Clostridium perfringens. The class given is cell-based. Conditions: disk 200 μg, anaerobic, 24-48 h.
Assay [7] deals with E faecalis. The experiment in a line: Microdilution antimicrobial susceptibility test (MIC). The class given is cell-based. Conditions: broth microdilution, 18-24 h, MIC = 90% inhibition of growth; read-out: MIC E faecalis MIC2.
The subject of assay [8] is Peptostreptococcus sp. The class given is cell-based.
The subject of assay [9] is Bacteroides thetaiotaomicron. The class given is cell-based. The note with it: agar dilution, anaerobic, 48 h.
Assay [10] has as its system Bacteroides fragilis. The class given is cell-based.
In assay [11] the test system is E. coli. The experiment in a line: Systemic bacterial infection model, mice infected with E. coli.
Assay [12] relates to Bacteroides vulgatus. The assay is described as follows: Antimicrobial agar dilution test of anaerobic bacteria (MIC). The class given is cell-based. Conditions: 48 h.
The test system of assay [13] is S. aureus. The experiment in a line: Systemic bacterial infection model, mice infected with S. aureus.
For assay [14], the system named is Clostridium sp. The class given is cell-based. Conditions: disk 200 μg, anaerobic, 24-48 h.
Assay [15] relates to S aureus. The experiment in a line: Microdilution antimicrobial susceptibility test (MIC). Conditions: broth microdilution, 18-24 h, MIC = 90% inhibition of growth; read-out: MIC S aureus MIC2. The class given is cell-based.
The test system of assay [16] is M. catarrhalis. The assay is described as above. The class given is cell-based. Conditions: Moraxella catarrhalis; broth microdilution, 18-24 h, MIC = 90% inhibition of growth; read-out: MIC M. catarrhalis MIC2.
Assay [17] concerns H influenzae. Described as above. The class given is cell-based. Conditions: broth microdilution, 18-24 h, MIC = 90% inhibition of growth; read-out: MIC H influenzae MIC4.
In assay [18] the test system is P aeruginosa. Described as above. The class given is cell-based. The note with it: broth microdilution, 18-24 h, MIC = 90% inhibition of growth; read-out: MIC P aeruginosa MIC2.
[19] abbreviates: Clostridium perfringens (fresh wound isolate).
[20] abbreviates: Clostridium perfringens, diameter includes disk.
[21] abbreviates: Study #3, 50 mg/kg IP QD × 3, 6 days observation.
[22] abbreviates: Study #3, 75 mg/kg IP QD × 3, 6 days observation.
[23] abbreviates: Study #3, 100 mg/kg IP QD × 3, 6 days observation.
[24] abbreviates: Study #2, 25 mg/kg IP QD × 3, 6 days observation.
The mark [25] stands for this setting: Study #2, 50 mg/kg IP QD × 3, 6 days observation.

Converted amounts (≈) assume the structure as drawn. Read-outs that look alike come from different tables or passages of the source.

In the case of `Cn1c(S)nnc1-c1ccc([N+](=O)[O-])o1` [Compound 122, 5-[2-(5-Nitro)furyl]-4-methyl-4H-1,2,4-triazole-3-thiol], the MIC in assay [1] came out at 0.25 µg/mL (≈ 1.11 µM); in assay [2], 32 µg/mL (≈ 141 µM); in assay [3], 4 µg/mL (≈ 17.7 µM); in assay [5], 4 µg/mL (≈ 17.7 µM); in assay [7], 2 µg/mL (≈ 8.84 µM); in [15] it was 2 µg/mL (≈ 8.84 µM). For the same molecule, the figures for the MIC in [16] and in assay [17] were under 0.12 µg/mL and 8 µg/mL (≈ 35.4 µM), respectively. The MIC Bacteroides fragilis in [4] (first B. fragilis column), in [4] (second B. fragilis column) and in assay [4] (third B. fragilis column) was under 0.125 µg/mL each time. Moreover, the Inhibition zones in assay [6] (setting [19]) is recorded as 30 mm; in assay [6] (setting [20]), 36 mm*; in [8] (Peptostreptococcus sp (fresh abdominal aspirate), disk 200 μg, anaerobic, 24-48 h), 15 mm; in assay [10] (Bacteroides fragilis, disk 200 μg, anaerobic, 24-48 h), 41 mm; in assay [14] (Clostridium sp. (first listed strain)), 20 mm; in assay [14] (Clostridium sp. (second listed strain)) it was 40 mm. In assay [9], this molecule had an MIC Bacteroides thetaiotaomicron of under 0.125 µg/mL. In addition, the “Survival (%)” value in assay [11] (Study #3, 25 mg/kg IP QD × 3, 6 days observation) is reported as 0%; in [11] (setting [21]), 60%; in assay [11] (setting [22]), 20%; in assay [11] (setting [23]), 0%; in assay [13] (setting [24]), 0%; in [13] (setting [25]), 30%. The “Survival (%)” value is 10% in assay [13] (Study #2, 75 mg/kg IP QD × 3, 6 days observation) and 0% in [13] (Study #2, 100 mg/kg IP QD × 3, 6 days observation). In [12], this molecule showed an MIC Bacteroides vulgatus of under 0.125 µg/mL.

Take `O=C1CN(/N=C/c2ccc([N+](=O)[O-])o2)C(=O)N1` [Nitrofurantoin, reference compound]: the MIC in assay [2] is over 64 µg/mL; in assay [3], 2 µg/mL (≈ 8.4 µM); in assay [5], 8 µg/mL (≈ 33.6 µM); in [18], over 64 µg/mL; in assay [7] it was 4 µg/mL (≈ 16.8 µM); in [15], 16 µg/mL (≈ 67.2 µM). Besides, the MIC in [16] is 2 µg/mL (≈ 8.4 µM); in assay [17], 4 µg/mL (≈ 16.8 µM). The MIC Bacteroides fragilis in assay [4] (first B. fragilis column), in assay [4] (second B. fragilis column) and in assay [4] (third B. fragilis column) was 2 µg/mL (≈ 8.4 µM) each time. The Inhibition zones in [6] (setting [19]) is on record as 21 mm; in assay [6] (setting [20]), over 25 mm**; in assay [8] it was 12 mm**; in assay [10] it was over 25 mm**. For the same molecule, the MIC Bacteroides thetaiotaomicron in assay [9] was found to be 2 µg/mL (≈ 8.4 µM). Moreover, the “Survival (%)” value in assay [11] (setting [21]) was 0%; in [11] (setting [22]) it was 20%; in assay [11] (setting [23]), 0%; in assay [13] (setting [24]) it was 50%; in assay [13] (setting [25]), 50%. In [12], this molecule yielded an MIC Bacteroides vulgatus of under 0.125 µg/mL.

Consider `CCN1CCN(C(=O)N[C@@H](C(=O)N[C@@H]2C(=O)N3[C@@H]2SC(C)(C)[C@@H]3C(=O)O)c2ccccc2)C(=O)C1=O` [Piperacillin], for which the figures for the MIC Bacteroides fragilis in [4] (first B. fragilis column), in assay [4] (second B. fragilis column) and in assay [4] (third B. fragilis column) were 2 µg/mL (≈ 3.86 µM), 16 µg/mL (≈ 30.9 µM) and 2 µg/mL (≈ 3.86 µM), respectively. Moreover, the MIC Bacteroides thetaiotaomicron in assay [9] was determined as 16 µg/mL (≈ 30.9 µM). The molecule also registered an MIC Bacteroides vulgatus in assay [12] of 128 µg/mL (≈ 247 µM).
